The values that follow come from ChEMBL document CHEMBL1201862, “PubChem BioAssay data set” (2004).

Some test systems named below: UACC-257; UO-31; SF-539; SK-OV-3; IGROV-1; LOX IMVI; HCT-116; SK-MEL-28; U-251; NCI-H460; M14; SF-295; HOP-92; HCC 2998; A498; A549; SF-268; SR; CAKI-1.
What all share (experiment): DTP human tumour cell line panel, 48 h

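These data come from cells grown in 96-well plates and exposed to compound for 48 hours at five concentrations. Here, GI50 denotes the concentration required for 50% inhibition of growth.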 The source made the active and inactive calls. Rule as the data show it: active = GI50 up to about 1.1 µM and inactive = higher. Some results are limits rather than exact numbers.

As usually defined, the GI50 is the concentration giving 50% growth inhibition. For `ON(Cc1ccccc1)C(=S)c1ccccc1`, the GI50 in the assay with UACC-257 was 4.72 µM (inactive); in the assay with UO-31, 4.03 µM (inactive); with SF-539 it was 5.43 µM (inactive); with SK-OV-3, 14.7 µM (inactive); with IGROV-1, 5.86 µM (inactive); in the assay on LOX IMVI, 2.24 µM (inactive). The GI50 is 3.4 µM (inactive) in the assay with HCT-116; 11.4 µM (inactive) in the assay with SK-MEL-28; 3.64 µM (inactive) in the assay on U-251; 1.93 µM (inactive) in the assay on NCI-H460; 5.21 µM (inactive) with M14; 3.42 µM (inactive) in the assay on SF-295. In addition, the GI50 in the assay on HOP-92 was 50.7 µM (inactive); with HCC 2998, 7.24 µM (inactive); in the assay on A498, 25.3 µM (inactive); in the assay on A549 it was 4.35 µM (inactive); with SF-268, 3.32 µM (inactive); in the assay on SR it was 0.481 µM (active).

With `COc1ccc(NC(=O)C(=O)NNC(=O)c2sc(NNC(C)=O)nc2C)c([N+](=O)[O-])c1`, the GI50 in the assay with UACC-257 was 81.7 µM (inactive); in the assay with UO-31, > 100 µM (inactive); in the assay on SF-539, > 100 µM (inactive); with SK-OV-3, > 100 µM (inactive); in the assay on IGROV-1, > 10 µM (inactive); with LOX IMVI, 40.6 µM (inactive). For the same compound, the GI50 in the assay with HCT-116, in the assay with SK-MEL-28, with U-251, in the assay with NCI-H460, with M14 and in the assay with SF-295 was > 100 µM (inactive) in each case. For the same compound, the GI50 in the assay on HOP-92 was > 100 µM (inactive); with HCC 2998, > 100 µM (inactive); with A498, 33.3 µM (inactive); in the assay with A549, > 100 µM (inactive); in the assay with SF-268 it was 51.8 µM (inactive); in the assay on SR, 45.3 µM (inactive).

Take `CCOC(=O)C1(C#N)C(c2ccccc2)CC(O)(c2ccc(OC)cc2)C(C(=O)c2ccc(OC)cc2)C1c1ccccc1` (stereo unspecified): the GI50 with CAKI-1 is 98.2 µM (inactive); in the assay on UACC-257, > 100 µM (inactive); in the assay on UO-31 it was 74.6 µM (inactive); in the assay with SK-OV-3 it was > 100 µM (inactive); with IGROV-1, > 100 µM (inactive); with LOX IMVI, > 100 µM (inactive). The GI50 in the assay with HCT-116, with SK-MEL-28, with U-251, with NCI-H460, in the assay on M14 and with SF-295 was > 100 µM (inactive) in each case. In addition, the GI50 with HCC 2998, with A549, in the assay with SF-268 and in the assay on SR was > 100 µM (inactive) throughout.

`C=C(C)C1Cc2c(cc(O)c3c(=O)c4ccccc4n(C)c23)O1` (stereo unspecified): the GI50 with CAKI-1 is 20.7 µM (inactive); in the assay on UACC-257, > 100 µM (inactive); in the assay on SK-OV-3, 25.5 µM (inactive); with LOX IMVI, 10.7 µM (inactive); with HCT-116, 69.8 µM (inactive); with SK-MEL-28 it was > 100 µM (inactive). The GI50 in the assay on U-251 is 56 µM (inactive); with NCI-H460, 43.5 µM (inactive); in the assay with M14, 28.7 µM (inactive); in the assay with SF-295 it was 7.45 µM (inactive); in the assay with HOP-92, 20.6 µM (inactive); in the assay with HCC 2998 it was > 100 µM (inactive). Further, the GI50 in the assay on A498 was 24.3 µM (inactive); in the assay on A549, 49.8 µM (inactive); in the assay on SF-268 it was 21.5 µM (inactive); in the assay with SR it was 29.9 µM (inactive).

For `Cc1cc(C)nc(NS(=O)(=O)c2ccc(NC(=O)c3cccc4c(Nc5ccc(S(=O)(=O)Nc6cc(C)on6)cc5)c5ccccc5nc34)cc2)n1`, the GI50 in the assay on UACC-257 is 22.2 µM (inactive); in the assay on UO-31, 35 µM (inactive); in the assay with SF-539, 17.1 µM (inactive); in the assay with SK-OV-3, 27.9 µM (inactive); in the assay on LOX IMVI, 18.9 µM (inactive); in the assay on HCT-116 it was 25.9 µM (inactive). In addition, the GI50 with SK-MEL-28 was 20.7 µM (inactive); with U-251 it was 18.4 µM (inactive); in the assay on NCI-H460, 25.6 µM (inactive); with M14 it was 22.7 µM (inactive); in the assay with HCC 2998, 14.8 µM (inactive); in the assay with A498 it was 23.8 µM (inactive). Moreover, the GI50 with SF-268 was 19.7 µM (inactive); with SR, 27.2 µM (inactive).

Consider `CCN(CC)CCO[Si](OCCN(CC)CC)(OCCN(CC)CC)OCCN(CC)CC`, for which the GI50 with CAKI-1, in the assay on UACC-257, with UO-31, in the assay with SF-539, in the assay with SK-OV-3 and with IGROV-1 was > 100 µM (inactive) in each case. The GI50 in the assay with LOX IMVI was > 100 µM (inactive); in the assay on HCT-116 it was > 10 µM (inactive); with SK-MEL-28 it was > 100 µM (inactive); in the assay with U-251 it was > 100 µM (inactive); in the assay on NCI-H460, > 100 µM (inactive); in the assay with M14 it was > 100 µM (inactive). Moreover, the GI50 in the assay on SF-295, in the assay with HCC 2998, in the assay on A549 and in the assay on SR was > 100 µM (inactive) in each case.

For the compound `COc1cc(C)c(CC/C(C)=C/Cc2cc(O)ccc2O)c(C)c1C` [PANICEIN A HYDROQUINONE], the GI50 in the assay with CAKI-1, in the assay on UO-31, in the assay on SF-539, in the assay on SK-OV-3, in the assay on IGROV-1 and in the assay with HCT-116 was > 25 µM (inactive) in each case. The GI50 with SK-MEL-28, in the assay with U-251, in the assay with NCI-H460, with M14, with SF-295 and with HOP-92 was > 25 µM (inactive) each time. Moreover, the GI50 in the assay on HCC 2998, in the assay with A498, in the assay on A549, in the assay with SF-268 and in the assay with SR was > 25 µM (inactive) each time.

Regarding `S=C=NCCc1ccccc1` [PHENETHYLISOTHIOCYANATE], the GI50 in the assay on UACC-257 is 0.885 µM (active); in the assay on UO-31 it was 1.59 µM (inactive); in the assay with SF-539, 0.207 µM (active); with SK-OV-3 it was 1.72 µM (inactive); with IGROV-1, 0.435 µM (active); in the assay on LOX IMVI, 0.194 µM (active). In addition, the GI50 with HCT-116 was 0.453 µM (active); in the assay with SK-MEL-28, 0.71 µM (active); with U-251 it was 0.794 µM (active); in the assay on NCI-H460, 0.0973 µM (active); in the assay on M14, 0.46 µM (active); with SF-295 it was 1.57 µM (inactive). In addition, the GI50 in the assay with HCC 2998 is 0.412 µM (active); with A498 it was 0.431 µM (active); with A549 it was 2.39 µM (inactive); in the assay on SF-268, 1.06 µM (active); with SR it was 0.351 µM (active).

On to `COC(=O)C12C3C4C1C1C2C3C41C(=O)O` (stereo unspecified), for which the GI50 in the assay with CAKI-1, in the assay with UACC-257, in the assay on UO-31, with SF-539, in the assay on SK-OV-3 and with IGROV-1 was > 100 µM (inactive) in each case. Moreover, the GI50 with SK-MEL-28, with U-251, in the assay on NCI-H460, in the assay with M14, in the assay on SF-295 and in the assay with HOP-92 was > 100 µM (inactive) each time. Moreover, the GI50 in the assay with HCC 2998, in the assay with A498, in the assay with A549 and in the assay with SF-268 was > 100 µM (inactive) each time.

On to `C=CCNC(=O)N(CCC)CCCC(NC(C)=O)C(=O)NCc1ccccc1` (stereo unspecified), for which the GI50 in the assay on CAKI-1, in the assay with UACC-257, in the assay on UO-31, in the assay with SF-539, in the assay on SK-OV-3 and with IGROV-1 was > 100 µM (inactive) each time. Besides, the GI50 in the assay with LOX IMVI, in the assay with SK-MEL-28, with U-251, with NCI-H460, in the assay on M14 and with SF-295 was > 100 µM (inactive) in each case. Further, the GI50 in the assay with HOP-92, in the assay with A498, in the assay on A549 and in the assay with SF-268 was > 100 µM (inactive) each time.

As for `CC1(Br)S(=O)(=O)OCCOS1(=O)=O`, the GI50 in the assay on UACC-257, in the assay on UO-31, in the assay on SF-539, in the assay with SK-OV-3, with IGROV-1 and in the assay with LOX IMVI was > 100 µM (inactive) each time. In addition, the GI50 with HCT-116, in the assay with SK-MEL-28, in the assay with U-251, in the assay with NCI-H460, in the assay on M14 and with SF-295 was > 100 µM (inactive) in each case. Further, the GI50 in the assay with HOP-92, in the assay with HCC 2998, with A498, in the assay on A549, with SF-268 and in the assay on SR was > 100 µM (inactive) each time.

In the case of `CCOC(=O)Cc1cc(OC)c(OC)cc1/C(Cl)=C(\CO)c1ccc(OC)c(OC)c1`, the GI50 in the assay on CAKI-1 was > 100 µM (inactive); in the assay on UACC-257 it was > 100 µM (inactive); in the assay with UO-31 it was 80.5 µM (inactive); with SK-OV-3 it was > 100 µM (inactive); with IGROV-1 it was > 100 µM (inactive); with LOX IMVI, 87.9 µM (inactive). Further, the GI50 in the assay on HCT-116 is > 100 µM (inactive); in the assay with SK-MEL-28, 78 µM (inactive); in the assay on U-251, 64 µM (inactive); in the assay with NCI-H460, > 100 µM (inactive); in the assay with M14, > 100 µM (inactive); in the assay with SF-295, 39.8 µM (inactive). For the same compound, the figures for the GI50 in the assay on HOP-92 and in the assay with A549 were 25.2 µM (inactive) and > 100 µM (inactive), respectively.
